Where no end group is shown, it is not given here.
Assays:
[1] = system: mice; test: Oral glucose tolerance test (OGTT) in mice after nasal administration of GLP-1 derivative; format: in vivo, mouse; design: Blood insulin level (5 minutes after glucose administration): unit not given here; conditions: for Blood glucose level (area under blood concentration-time curve (AUC0-20 min)) / Blood insulin level (5 minutes after glucose administration): average ± standard error
Method: That is, the GLP-1 derivative was administered via the nose into mice, and evaluated in an oral glucose tolerance test (OGTT) where a change in blood glucose level in the mice after tolerated with glucose was measured.
At the time of the test, the solution was diluted to a predetermined concentration with physiological saline.
(§1) Mice were anesthetized lightly with ether. […] The GLP-1 derivative solution was inhaled by breathing through the nose into the mouse.
(§2) The blood glucose level was determined by collecting several μl blood from a cut in the tail just before the test and 5, 10 and 20 minutes after glucose administration, and measuring the blood with a small blood-glucose-level measuring instrument (Glutest Ace, manufactured by Sanwa Kagaku Kenkyusho Co., Ltd.).
(§3) The blood insulin level was determined by collecting 75 μl blood from an orbital venous plexus with a heparin-treated glass capillary 5 minutes after administration of glucose, then centrifuging the blood and measuring plasma insulin by EIA (Levis Mouse Insulin Kit, manufactured by Shibayagi Co., Ltd.).

[2] = target: dipeptidyl peptidase IV (Homo sapiens, UniProt P27487); test: Resistance to dipeptidyl peptidase IV (residual cAMP activity); format: in vitro ADME
Chain of dipeptidyl peptidase IV (P27487 whole entry, species assumed): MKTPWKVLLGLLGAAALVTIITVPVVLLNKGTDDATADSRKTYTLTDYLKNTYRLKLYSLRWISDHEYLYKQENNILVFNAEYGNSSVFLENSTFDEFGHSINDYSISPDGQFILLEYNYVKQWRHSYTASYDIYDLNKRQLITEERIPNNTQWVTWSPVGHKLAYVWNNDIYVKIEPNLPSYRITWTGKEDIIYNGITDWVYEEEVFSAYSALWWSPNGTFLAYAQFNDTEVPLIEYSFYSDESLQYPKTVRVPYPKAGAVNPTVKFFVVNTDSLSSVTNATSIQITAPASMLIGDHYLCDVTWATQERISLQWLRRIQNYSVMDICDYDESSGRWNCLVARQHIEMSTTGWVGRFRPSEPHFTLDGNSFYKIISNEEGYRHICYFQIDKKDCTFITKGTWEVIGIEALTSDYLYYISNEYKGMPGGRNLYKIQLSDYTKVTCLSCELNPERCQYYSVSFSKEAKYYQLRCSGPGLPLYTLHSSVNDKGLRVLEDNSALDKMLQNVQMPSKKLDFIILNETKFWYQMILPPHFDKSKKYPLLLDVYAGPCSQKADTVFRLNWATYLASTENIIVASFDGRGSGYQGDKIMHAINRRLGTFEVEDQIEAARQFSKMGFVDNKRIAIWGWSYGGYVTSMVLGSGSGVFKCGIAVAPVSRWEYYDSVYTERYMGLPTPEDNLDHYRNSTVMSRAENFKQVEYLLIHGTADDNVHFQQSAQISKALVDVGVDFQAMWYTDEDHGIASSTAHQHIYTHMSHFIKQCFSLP
Method: Thereafter, the sample was extracted with a 2-fold excess volume of ethanol, centrifuged and evaporated into dryness by an evaporator. The resulting dried product was dissolved in distilled water containing 1% BSA, and its cyclic AMP production activity was measured according to Test Example 1, to calculate the residual activity (%).

[3] = system: mice; test: OGTT in mice after nasal administration, with or without charge-regulated fat emulsion; format: in vivo, mouse; design: unit not given here
Method: The charge-regulated fat emulsion used was prepared according to JP-A 8-27018; that is, a charge-regulated fat emulsion at a final concentration of 8% was obtained by using 2% (w/w) phosphatidyl glycerol (sodium salt), 8% (w/w) neutral oil and 90% (w/w) water.
50 μl of 8% charge-regulated fat emulsion was mixed with 3.56 μl of 1 mM 8S-GLP-1+5R solution and 146.4 μl distilled water to give 2% charge-regulated fat emulsion solution containing 8S-GLP-1+5R at a final concentration of 0.0178 mM.
as §1
as §2, with “10, 20” for “5, 10”, “30” for “20”, “glucose” for “the blood”, “a” for “a small”
as §3, with “capillary 10” for “capillary 5”

[4] = system: mouse Langerhans islet; test: Insulin secretion stimulating activity using mouse Langerhans islet; format: cell-based; conditions: 16.7 mM glucose
[5] = system: mice; test: Blood glucose lowering activity in mice after subcutaneous administration and intravenous glucose; format: in vivo, mouse; conditions: for Blood sugar level 20 minutes after tolerance with glucose: 0.5 g/kg glucose i.v., mouse
[6] = target: T1, human GLP-1 receptor (Homo sapiens, UniProt P43220); test: Cyclic AMP-producing activity in human GLP-1 receptor-expressing CHO-K1 cells; format: cell-based
T1 construct: expressed in transfected cells; host or cells: CHO-K1 (Chinese hamster ovary)
T1 sequence (P43220 24-463): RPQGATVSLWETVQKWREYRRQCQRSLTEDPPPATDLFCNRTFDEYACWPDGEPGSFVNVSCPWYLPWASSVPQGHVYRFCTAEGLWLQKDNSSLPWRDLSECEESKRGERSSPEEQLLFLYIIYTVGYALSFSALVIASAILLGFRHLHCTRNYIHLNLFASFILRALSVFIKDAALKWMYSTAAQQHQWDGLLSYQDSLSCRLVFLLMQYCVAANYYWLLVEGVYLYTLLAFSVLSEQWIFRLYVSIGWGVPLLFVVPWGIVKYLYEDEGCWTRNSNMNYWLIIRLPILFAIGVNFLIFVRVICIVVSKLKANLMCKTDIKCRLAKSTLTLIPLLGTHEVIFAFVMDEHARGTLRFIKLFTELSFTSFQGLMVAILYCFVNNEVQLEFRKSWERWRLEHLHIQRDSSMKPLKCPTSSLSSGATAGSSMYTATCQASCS
Method: 10 μl of 5 N hydrochloric acid was added to terminate the incubation.

[7] = target: T2, trypsin (Sus scrofa, UniProt P00761); test: Resistance to trypsin (residual cAMP activity); format: in vitro ADME
T2 construct: purchased Promega V5113
T2 sequence (P00761 9-231): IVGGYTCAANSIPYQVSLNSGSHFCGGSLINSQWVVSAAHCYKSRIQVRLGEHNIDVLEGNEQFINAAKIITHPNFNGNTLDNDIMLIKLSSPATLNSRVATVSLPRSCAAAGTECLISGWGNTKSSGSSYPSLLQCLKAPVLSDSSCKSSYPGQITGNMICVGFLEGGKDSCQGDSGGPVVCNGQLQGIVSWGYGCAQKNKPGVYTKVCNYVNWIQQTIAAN
Method: Then, 5 μl of 500 μg/ml trypsin (Promega Cat. No. V5113) was added to 100 μl of the solution, and the mixture was incubated at 37° C. for 1 hour. The reaction was terminated by adding 1200 μl of 71.5% (final 65%) ethanol, and the reaction solution was centrifuged at 15,000 rpm at 4° C. for 5 minutes to recover a supernatant which was then evaporated into dryness. The dried product was dissolved in distilled water and measured for cAMP activity by the method in Test Example 1, to determine the residual activity (%).

Compound: [Ser^8]-GLP-1 (7-35)-Arg-Lys-Lys-NH2 (HSEGTFTSDVSSYLEGQAAKEFIAWLVKGRKK-NH2) [8S-GLP-1 + 2K]
- Blood glucose level (area under blood concentration-time curve (AUC0-20 min)) ([1]; 1.07 nmol/mouse): 598 ± 63 mg·min/dL
- Blood insulin level (5 minutes after glucose administration) ([1]; 1.07 nmol/mouse): 862 ± 150

Compound: [Ser^8]-GLP-1 (7-35)-Arg-Arg-Arg-Arg-NH2 (HSEGTFTSDVSSYLEGQAAKEFIAWLVKGRRRR-NH2) [8S-GLP-1 + 3R]
- Blood glucose level (area under blood concentration-time curve (AUC0-20 min)) ([1]; 1.07 nmol/mouse): 509 ± 92 mg·min/dL
- Blood insulin level (5 minutes after glucose administration) ([1]; 1.07 nmol/mouse): 1359 ± 318

Compound: [Ser^8]-GLP-1 (7-35)-Arg-Arg-Arg-Arg-Arg-Arg-Arg-Arg-Arg-NH2 (HSEGTFTSDVSSYLEGQAAKEFIAWLVKGRRRRRRRRR-NH2) [8S-GLP-1 + 8R]
- Blood glucose level (area under blood concentration-time curve (AUC0-20 min)) ([1]; 1.07 nmol/mouse): 487 ± 32 mg·min/dL
- Blood insulin level (5 minutes after glucose administration) ([1]; 1.07 nmol/mouse): 1882 ± 402

Compound: [Ser^8]-GLP-1 (7-35)-Arg-Arg-Arg-Arg-Arg-NH2 (HSEGTFTSDVSSYLEGQAAKEFIAWLVKGRRRRR-NH2) [8S-GLP-1 + 4R]
- blood glucose depressing action (in words) [1]: strongest blood glucose depressing action
- Blood glucose level (area under blood concentration-time curve (AUC0-20 min)) ([1]; 1.07 nmol/mouse): 388 ± 54 mg·min/dL
- Blood insulin level (5 minutes after glucose administration) ([1]; 1.07 nmol/mouse): 1713 ± 430

Compound: [Ser^8]-GLP-1 (7-35)-Lys-Lys-Arg-NH2 (HSEGTFTSDVSSYLEGQAAKEFIAWLVKGKKR-NH2) [8S, des36R-GLP-1 + 2KR]
- Blood glucose level (area under blood concentration-time curve (AUC0-20 min)) ([1]; 1.07 nmol/mouse): 564 ± 52 mg·min/dL
- Blood insulin level (5 minutes after glucose administration) ([1]; 1.07 nmol/mouse): 1243 ± 309

Compound: [Ser^8]-GLP-1 (7-35)-Lys-Lys-Lys-Lys-Lys-Lys-Lys-Lys-Lys-Lys-Arg-NH2 (HSEGTFTSDVSSYLEGQAAKEFIAWLVKGKKKKKKKKKKR-NH2) [8S, des36R-GLP-1 + 10KR]
- Blood glucose level (area under blood concentration-time curve (AUC0-20 min)) ([1]; 1.07 nmol/mouse): 492 ± 106 mg·min/dL
- Blood insulin level (5 minutes after glucose administration) ([1]; 1.07 nmol/mouse): 2379 ± 520

Compound: GLP-1 (7-36)—NH2 [reference compound]
- Residual activity (%) ([2]; DPP IV + (40 μU/μl, 37° C., 60 minutes)): 25%
- Residual activity (%) ([2]; DPP IV −(not treated)): 100%
- Blood glucose level (area under blood concentration-time curve (AUC0-20 min)) ([1]; 1.07 nmol/mouse): 697 ± 94 mg·min/dL
- Blood insulin level (5 minutes after glucose administration) ([1]; 1.07 nmol/mouse): 662 ± 91
- Blood glucose level (area under blood concentration-time curve (AUC0-20 min)) ([1]; 10.7 nmol/mouse): 399 ± 35 mg·min/dL
- Blood insulin level (5 minutes after glucose administration) ([1]; 10.7 nmol/mouse): 743 ± 147
- Blood insulin level (10 minutes after glucose administration) ([3]; 10.7 nmol/mouse, without charge-regulated fat emulsion): 377 ± 41
- Amount of insulin secreted ([4]; assay concentration −8 log M): 6.71 ng/islet/30 min
- Amount of insulin secreted ([4]; assay concentration −9 log M): 5.11 ng/islet/30 min
- Amount of insulin secreted ([4]; assay concentration −10 log M): 4.11 ng/islet/30 min
- Blood sugar level 20 minutes after tolerance with glucose ([5]; 5 μg/kg): 119 mg/dL
- Blood sugar level 20 minutes after tolerance with glucose ([5]; 10 μg/kg): 103 mg/dL
- Blood sugar level 20 minutes after tolerance with glucose ([5]; 20 μg/kg): 75 mg/dL

Compound: [Ser^8]-GLP-1 (7-35)-Lys-Arg-NH2 (HSEGTFTSDVSSYLEGQAAKEFIAWLVKGKR-NH2) [8S, des36R-GLP-1 + 1KR]
- Blood glucose level (area under blood concentration-time curve (AUC0-20 min)) ([1]; 1.07 nmol/mouse): 611 ± 51 mg·min/dL
- Blood insulin level (5 minutes after glucose administration) ([1]; 1.07 nmol/mouse): 1349 ± 244

Compound: [Ser^8]-GLP-1 (7-35)-Lys-Lys-Lys-Lys-Lys-Arg-NH2 (HSEGTFTSDVSSYLEGQAAKEFIAWLVKGKKKKKR-NH2) [8S, des36R-GLP-1 + 5KR]
- blood glucose depressing action (in words) [1]: strongest blood glucose depressing action
- Blood glucose level (area under blood concentration-time curve (AUC0-20 min)) ([1]; 1.07 nmol/mouse): 404 ± 71 mg·min/dL
- Blood insulin level (5 minutes after glucose administration) ([1]; 1.07 nmol/mouse): 2229 ± 346

Compound: [Ser^8]-GLP-1 (7-35)-Lys-Lys-Lys-Arg-NH2 (HSEGTFTSDVSSYLEGQAAKEFIAWLVKGKKKR-NH2) [8S, des36R-GLP-1 + 3KR]
- Blood glucose level (area under blood concentration-time curve (AUC0-20 min)) ([1]; 1.07 nmol/mouse): 557 ± 53 mg·min/dL
- Blood insulin level (5 minutes after glucose administration) ([1]; 1.07 nmol/mouse): 1176 ± 233

Compound: [Ser^8]-GLP-1 (7-35)-Arg-Arg-Arg-Arg-Arg-Arg-NH2 (HSEGTFTSDVSSYLEGQAAKEFIAWLVKGRRRRRR-NH2) [8S-GLP-1 + 5R]
- Blood glucose level (area under blood concentration-time curve (AUC0-20 min)) ([1]; 1.07 nmol/mouse): 483 ± 26 mg·min/dL
- Blood insulin level (5 minutes after glucose administration) ([1]; 1.07 nmol/mouse): 1504 ± 250
- Blood insulin level (10 minutes after glucose administration) ([3]; 0.357 nmol/mouse, used in combination with 2% charge-regulated fat emulsion): 560 ± 81
- Blood insulin level (10 minutes after glucose administration) ([3]; 0.357 nmol/mouse, without charge-regulated fat emulsion): 506 ± 34

Compound: [Ser^8]-GLP-1 (7-35)-Arg-Arg-Arg-Arg-Arg-Arg-Arg-NH2 (HSEGTFTSDVSSYLEGQAAKEFIAWLVKGRRRRRRR-NH2) [8S-GLP-1 + 6R]
- Blood glucose level (area under blood concentration-time curve (AUC0-20 min)) ([1]; 1.07 nmol/mouse): 559 ± 27 mg·min/dL
- Blood insulin level (5 minutes after glucose administration) ([1]; 1.07 nmol/mouse): 1633 ± 449

Compound: [Ser^8, Gln^26, Asn^34]-GLP-1 (7-35)-Arg (HSEGTFTSDVSSYLEGQAAQEFIAWLVNGR; ends and bridges not checked) [8S26Q34N-GLP-1]
- in vitro activity of producing cyclic AMP (in words) [6]: the activity was maintained
- Amount of cAMP produced ([6]; concentration −8 log M): 79.2 pmol/10^5 cell/30 min
- Amount of cAMP produced ([6]; concentration −9 log M): 76.1 pmol/10^5 cell/30 min
- Amount of cAMP produced ([6]; concentration −10 log M): 24.2 pmol/10^5 cell/30 min
- Amount of cAMP produced ([6]; concentration −11 log M): 4.7 pmol/10^5 cell/30 min
- Amount of cAMP produced ([6]; concentration −12 log M): 0.6 pmol/10^5 cell/30 min
- insulin secretion stimulating activity compared with naturally occurring GLP-1 (in words) ([4]; 30 minutes): stronger insulin secretion stimulating activity than that of the naturally occurring GLP-1
- Amount of insulin secreted ([4]; assay concentration −8 log M): 9.85 ng/islet/30 min
- Amount of insulin secreted ([4]; assay concentration −9 log M): 6.61 ng/islet/30 min
- Amount of insulin secreted ([4]; assay concentration −10 log M): 3.64 ng/islet/30 min
- blood glucose lowering activity in mice (in words) [5]: concentration-dependent depression in blood glucose level
- Blood sugar level 20 minutes after tolerance with glucose ([5]; 5 μg/kg): 110 mg/dL
- Blood sugar level 20 minutes after tolerance with glucose ([5]; 10 μg/kg): 95 mg/dL
- Blood sugar level 20 minutes after tolerance with glucose ([5]; 20 μg/kg): 21 mg/dL

Compound: [Ser^8]-GLP-1 (7-35)-Lys-Lys-Lys-Lys-Lys-Lys-Lys-Arg-NH2 (HSEGTFTSDVSSYLEGQAAKEFIAWLVKGKKKKKKKR-NH2) [8S, des36R-GLP-1 + 7KR]
- Blood glucose level (area under blood concentration-time curve (AUC0-20 min)) ([1]; 1.07 nmol/mouse): 457 ± 69 mg·min/dL
- Blood insulin level (5 minutes after glucose administration) ([1]; 1.07 nmol/mouse): 1604 ± 344

Compound: CC[C@H](C)[C@H](NC(=O)[C@H](Cc1ccccc1)NC(=O)[C@H](CCC(=O)O)NC(=O)[C@H](CCC(N)=O)NC(=O)[C@H](C)NC(=O)[C@H](C)NC(=O)[C@H](CCC(N)=O)NC(=O)CNC(=O)[C@H](CCC(=O)O)NC(=O)[C@H](CC(C)C)NC(=O)[C@H](Cc1ccc(O)cc1)NC(=O)[C@H](CO)NC(=O)[C@H](CO)NC(=O)[C@@H](NC(=O)[C@H](CC(=O)O)NC(=O)[C@H](CO)NC(=O)[C@@H](NC(=O)[C@H](Cc1ccccc1)NC(=O)[C@@H](NC(=O)CNC(=O)[C@H](CCC(=O)O)NC(=O)[C@H](C)NC(=O)[C@@H](N)Cc1c[nH]cn1)[C@@H](C)O)[C@@H](C)O)C(C)C)C(=O)N[C@@H](C)C(=O)N[C@@H](Cc1c[nH]c2ccccc12)C(=O)N[C@@H](CC(C)C)C(=O)N[C@H](C(=O)N[C@@H](CC(N)=O)C(=O)NCC(=O)N[C@@H](CCCNC(=N)N)C(N)=O)C(C)C [26Q34N-GLP-1, [Gln^26, Asn^34]-GLP-1 (7-35)-Arg-NH2]
- Residual activity (%) ([7]; Trypsin + (37° C., 1 hour, pH 7.8)): 94.8%
- Residual activity (%) ([7]; Trypsin − (not treated)): 100%

Compound: [Ser^8]-GLP-1 (7-35)-Arg-Arg-Arg-NH2 (HSEGTFTSDVSSYLEGQAAKEFIAWLVKGRRR-NH2) [8S-GLP-1 + 2R]
- Blood glucose level (area under blood concentration-time curve (AUC0-20 min)) ([1]; 1.07 nmol/mouse): 535 ± 58 mg·min/dL
- Blood insulin level (5 minutes after glucose administration) ([1]; 1.07 nmol/mouse): 957 ± 86

Source: patent US7291594B2 (Sanwa Kagaku Kenkyusho Co., Ltd., priority 2002, dated 2007)
